Laboratory results: patent US20060193797A1, “Chroman derivatives as lipoxygenase inhibitors” (Galileo Pharmaceuticals, Inc, priority 2005, published 2006)
pIC50: −log10 of the molar value.

Columns and labels:
[1] = molecular target: T1, porcine leukocyte 12/15-lipoxygenase (Sus scrofa, UniProt P16469); assay: 12/15-Lipoxygenase Enzyme Assay (colorimetric, ferric oxidation of xylenol orange); format: biochemical; conditions: 70 μM arachidonic acid, 10 minute incubation at room temperature, 5 concentrations in triplicate starting at 10 μM; read-out: inhibition of 12/15-Lipoxygenase, IC50
T1 construct: purchased Cayman 60300
T1 sequence (P16469 1-663): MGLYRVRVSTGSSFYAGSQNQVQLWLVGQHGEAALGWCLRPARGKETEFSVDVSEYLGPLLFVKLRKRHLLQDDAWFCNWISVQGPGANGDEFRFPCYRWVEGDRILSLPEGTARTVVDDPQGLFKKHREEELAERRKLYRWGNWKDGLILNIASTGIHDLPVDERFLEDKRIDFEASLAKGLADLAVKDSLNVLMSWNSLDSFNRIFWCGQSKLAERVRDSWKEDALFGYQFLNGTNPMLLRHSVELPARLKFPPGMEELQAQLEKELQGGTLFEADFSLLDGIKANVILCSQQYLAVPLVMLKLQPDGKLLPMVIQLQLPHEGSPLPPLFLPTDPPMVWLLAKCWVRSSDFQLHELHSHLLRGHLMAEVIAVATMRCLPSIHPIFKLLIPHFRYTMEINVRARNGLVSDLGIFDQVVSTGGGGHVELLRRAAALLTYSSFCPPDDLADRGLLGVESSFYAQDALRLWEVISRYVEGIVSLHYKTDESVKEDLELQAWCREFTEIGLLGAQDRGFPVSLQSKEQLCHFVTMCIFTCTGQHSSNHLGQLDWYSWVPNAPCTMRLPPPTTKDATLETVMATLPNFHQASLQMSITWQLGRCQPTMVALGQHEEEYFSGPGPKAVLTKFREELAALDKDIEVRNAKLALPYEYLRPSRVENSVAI
Experimental: This procedure was used for measuring the enzymatic activity of porcine leukocyte 12/15-lipoxygenase using a colorimetric method based on the ferric oxidation of xylenol orange.
Porcine Leukocyte 12/15-lipoxygenase (Cayman Cat # 60300) was used in this assay. Test compound and/or vehicle were added to 1.3 μL 12/15-lipoxygenase in 50 mM Tris-HCl buffer, pH 7.4. The reaction was initiated by addition of 70 μM arachidonic acid in Tris-HCl buffer, pH 7.4 and terminated after a 10 minute incubation at room temperature by addition of FOX reagent (25 mM sulfuric acid, 100 μM xylenol orange, 100 μM iron (II) sulphate, methanol:water 9:1). The yellow color of acidified xylenol orange was converted to a blue color by the lipid hydroperoxide-mediated oxidation of Fe^2+ ions and the interaction of the resulting Fe^3+ ions with the dye. The complex was allowed to form during a 1 hour incubation at room temperature with shaking. Absorbance of the Fe^3+ complex was then measured at […] using a spectrophotometer.
Negative controls contained enzyme during the incubation step but substrate was not added until after the FOX reagent.
Compounds are screened at 5 concentrations in triplicate starting at 10 μM.

[2] = molecular target: T2, human recombinant 5-lipoxygenase (Homo sapiens, UniProt P09917); assay: 5-Lipoxygenase Enzyme Assay (colorimetric, ferric oxidation of xylenol orange); format: biochemical; conditions: 70 μM arachidonic acid, 10 minute incubation at room temperature, 5 concentrations in triplicate starting at 10 μM; read-out: inhibition of 5-Lipoxygenase, IC50
T2 construct: purchased Cayman 60402
T2 sequence (P09917 1-674): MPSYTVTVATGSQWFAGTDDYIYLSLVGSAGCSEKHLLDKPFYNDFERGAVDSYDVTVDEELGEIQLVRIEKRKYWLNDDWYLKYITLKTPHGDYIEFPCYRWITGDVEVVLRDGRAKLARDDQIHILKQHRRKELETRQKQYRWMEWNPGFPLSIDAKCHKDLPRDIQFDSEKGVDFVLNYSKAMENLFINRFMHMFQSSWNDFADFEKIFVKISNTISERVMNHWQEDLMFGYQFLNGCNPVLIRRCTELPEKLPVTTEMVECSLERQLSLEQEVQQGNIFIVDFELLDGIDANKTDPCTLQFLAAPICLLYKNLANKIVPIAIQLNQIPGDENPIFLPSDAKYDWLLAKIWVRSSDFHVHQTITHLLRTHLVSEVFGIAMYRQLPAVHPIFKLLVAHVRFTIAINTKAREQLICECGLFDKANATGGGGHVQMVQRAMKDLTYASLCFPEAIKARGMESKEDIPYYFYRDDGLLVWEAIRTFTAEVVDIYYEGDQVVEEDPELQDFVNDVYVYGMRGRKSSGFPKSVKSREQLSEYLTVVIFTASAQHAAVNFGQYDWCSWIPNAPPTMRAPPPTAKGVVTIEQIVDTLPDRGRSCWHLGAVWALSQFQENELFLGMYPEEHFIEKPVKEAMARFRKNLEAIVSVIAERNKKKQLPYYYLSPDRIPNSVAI
Experimental: This procedure was used for measuring the enzymatic activity of human recombinant 5-lipoxygenase using a colorimetric method based on the ferric oxidation of xylenol orange.
Human recombinant 5-lipoxygenase (Cayman Cat # 60402) was used in this assay. The test compound and/or vehicle was added to 0.5 μL 5-lipoxygenase in 50 mM Tris-HCl buffer, pH 7.4. The reaction was initiated by addition of 70 μM arachidonic acid in Tris-HCl buffer, pH 7.4, and terminated after a 10 minute incubation at room temperature by addition of FOX reagent (25 mM sulfuric acid, 100 μM xylenol orange, 100 μM iron (II) sulphate, methanol:water 9:1). The yellow color of acidified xylenol orange was converted to a blue color by the lipid hydroperoxide-mediated oxidation of Fe^2+ ions and the interaction of the resulting Fe^3+ ions with the dye. The complex was allowed to form during a 1 hour incubation at room temperature with shaking. Absorbance of the Fe^3+ complex was then measured at […] using a spectrophotometer.
Negative controls contained enzyme during the incubation step but substrate was not added until after the FOX reagent. Compounds were screened at 5 concentrations in triplicate starting at 10 μM.

Row | SMILES | pIC50 [1] | pIC50 [2]
1 | CON=C1CC(C)(C)Oc2c(C)c(C)c(O)c(C)c21 [6-Hydroxy-2,2,5,7,8-pentamethyl-chroman-4-one O-methyl-oxime] | > 5.30 | > 5.52
2 | CON=C1CC(C)(C)Sc2c(C)c(C)c(O)c(C)c21 [6-Hydroxy-2,2,5,7,8-pentamethyl-thiochroman-4-one O-methyl-oxime] | > 5.30 | > 5.52
3 | CO/N=C1/Cc2c(C)c(O)c(C)c(C)c2OC1(C)C [6-hydroxy-2,2,5,7,8-pentamethylchroman-3-one O-methyl oxime] | > 5.30 | 

Further lines, results first:

Row | pIC50 [1] | pIC50 [2] | SMILES
4 | > 5.30 | > 5.52 | Cc1c(C)c2c(c(C)c1O)C(O)CC(C)(C)O2 (centres unmarked) [2,2,5,7,8-pentamethylchroman-4,6-diol]
5 |  | > 5.52 | Cc1c(O)cc2c(c1C)OC(C)(C)CC2O (centres unmarked) [2,2,7,8-tetramethylchroman-4,6-diol]
6 | > 5.30 | > 5.52 | CONC1CC(C)(C)Oc2c(C)c(C)c(O)c(C)c21 (centres unmarked) [4-Methoxyamino-2,2,5,7,8-pentamethyl-chroman-6-ol]
7 |  | > 5.52 | Cc1c(C)c2c(c(C)c1O)C(=NN(C)C)CC(C)(C)O2 [6-Hydroxy-2,2,5,7,8-pentamethyl-2,3-dihydro-4H-chromen-4-one dimethylhydrazone]
